These results are taken from ChEMBL document CHEMBL3813616, “Discovery of novel 7-azaindoles as PDK1 inhibitors” (Bioorg Med Chem Lett, 2016).

Structures are written as SMILES.

Test [1] addresses T1, 3-phosphoinositide-dependent protein kinase 1 (Homo sapiens) (UniProt O15530).
T1 sequence (whole entry): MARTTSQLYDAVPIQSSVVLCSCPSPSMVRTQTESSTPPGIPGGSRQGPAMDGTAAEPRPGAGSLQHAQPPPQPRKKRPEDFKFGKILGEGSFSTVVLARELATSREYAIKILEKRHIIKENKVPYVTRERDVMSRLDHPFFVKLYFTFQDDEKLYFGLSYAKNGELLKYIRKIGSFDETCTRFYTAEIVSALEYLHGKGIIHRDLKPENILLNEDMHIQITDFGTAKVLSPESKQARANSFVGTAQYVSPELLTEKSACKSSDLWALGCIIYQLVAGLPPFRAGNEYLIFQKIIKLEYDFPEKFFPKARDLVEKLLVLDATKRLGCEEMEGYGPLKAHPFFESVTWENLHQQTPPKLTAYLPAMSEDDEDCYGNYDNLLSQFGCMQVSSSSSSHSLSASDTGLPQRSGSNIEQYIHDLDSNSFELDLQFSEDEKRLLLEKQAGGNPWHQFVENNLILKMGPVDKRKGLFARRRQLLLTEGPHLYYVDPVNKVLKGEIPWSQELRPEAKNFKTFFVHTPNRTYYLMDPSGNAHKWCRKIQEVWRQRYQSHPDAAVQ
Briefly: Selectivity ratio of IC50 for PDK1-mediated AKT phosphorylation at Thr308 in human PC3 cells to IC50 for human His6-tagged PDK1. Particulars: PC-3. The format is cell-based.

The subject of the next test is MAPK3 (ERK1). Briefly: Inhibition of human MAPK3 (2 to 379 residues) assessed as enzyme activity at 1 uM using 33P ATP by radioactive filter binding assay. Further details: scale not given: the % may be the effect or the level left.
Test [2] has as its target Phosphatidylinositol 4,5-bisphosphate 3-kinase catalytic subunit delta isoform (Homo sapiens) (UniProt O00329). Briefly: Inhibition of PI3K delta (unknown origin) at 10 uM.
Test [3] has as its target MAP/microtubule affinity-regulating kinase 4 (Homo sapiens) (UniProt Q96L34). The experiment in a line: Inhibition of human MARK4 (2 to 752 residues) assessed as enzyme activity at 1 uM using 33P ATP by radioactive filter binding assay. Further details: scale not given: the % may be the effect or the level left.
In test [4] the target is Dual specificity mitogen-activated protein kinase kinase 2 (Homo sapiens) (UniProt P36507). Briefly: Inhibition of human MKK2 (2 to 400 residues) assessed as enzyme activity at 1 uM using 33P ATP by radioactive filter binding assay. Further details: scale not given: the % may be the effect or the level left.
Sequence of Dual specificity mitogen-activated protein kinase kinase 2 (Homo sapiens) (P36507 whole entry, the tested form may be a part): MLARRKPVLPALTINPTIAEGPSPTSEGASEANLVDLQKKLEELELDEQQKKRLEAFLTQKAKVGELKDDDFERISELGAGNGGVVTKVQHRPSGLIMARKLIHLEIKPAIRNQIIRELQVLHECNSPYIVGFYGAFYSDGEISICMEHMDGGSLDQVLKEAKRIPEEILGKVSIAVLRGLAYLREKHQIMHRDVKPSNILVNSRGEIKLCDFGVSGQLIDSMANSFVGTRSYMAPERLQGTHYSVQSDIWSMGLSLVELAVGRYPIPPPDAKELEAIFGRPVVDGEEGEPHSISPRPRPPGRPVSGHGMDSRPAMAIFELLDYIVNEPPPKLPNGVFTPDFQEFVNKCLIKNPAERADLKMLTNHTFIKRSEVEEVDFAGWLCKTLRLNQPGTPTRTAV
The target of test [5] is Serine/threonine-protein kinase PAK 2 (Homo sapiens) (UniProt Q13177). Briefly: Inhibition of human PAK2 (1 to 524 residues) assessed as enzyme activity at 1 uM using 33P ATP by radioactive filter binding assay. Further details: scale not given: the % may be the effect or the level left.
The target of test [6] is Tyrosine-protein kinase JAK2 (Homo sapiens) (UniProt O60674). The experiment in a line: Inhibition of JAK2 (unknown origin) assessed as enzyme activity at 1 uM using 33P ATP by radioactive filter binding assay. On the set-up: scale not given: the % may be the effect or the level left.
Test [7] addresses Serine/threonine-protein kinase BRSK1 (Homo sapiens) (UniProt Q8TDC3). Briefly: Inhibition of human BRSK1 (2 to 778 residues) assessed as enzyme activity at 1 uM using 33P ATP by radioactive filter binding assay. On the set-up: scale not given: the % may be the effect or the level left.
The target of test [8] is Dual specificity protein kinase CLK2 (Homo sapiens) (UniProt P49760). Briefly: Inhibition of human CLK2 (138 to 499 residues) assessed as enzyme activity at 1 uM using 33P ATP by radioactive filter binding assay. On the set-up: scale not given: the % may be the effect or the level left.
Test [9] deals with Casein kinase II subunit alpha (Homo sapiens) (UniProt P68400). Briefly: Inhibition of human CK2alpha (2 to 391 residues) assessed as enzyme activity at 1 uM using 33P ATP by radioactive filter binding assay. Further details: scale not given: the % may be the effect or the level left.
For test [10], the target named is Receptor tyrosine-protein kinase erbB-4 (Homo sapiens) (UniProt Q15303). The experiment in a line: Inhibition of human HER4 (706 to 991 residues) assessed as enzyme activity at 1 uM using 33P ATP by radioactive filter binding assay. Further details: scale not given: the % may be the effect or the level left.
The target in test [11] is Serine/threonine-protein kinase TAO1 (Homo sapiens) (UniProt Q7L7X3). The experiment in a line: Inhibition of human TAO1 (1 to 356 residues) assessed as enzyme activity at 1 uM using 33P ATP by radioactive filter binding assay. Further details: scale not given: the % may be the effect or the level left.
In test [12] the target is Mitogen-activated protein kinase 1 (Homo sapiens) (UniProt P28482). Briefly: Inhibition of human ERK2 (2 to 360 residues) assessed as enzyme activity at 1 uM using 33P ATP by radioactive filter binding assay. On the set-up: scale not given: the % may be the effect or the level left.
Test [13] deals with High affinity nerve growth factor receptor (Homo sapiens) (UniProt P04629). The experiment in a line: Inhibition of human TrkA (441 to 760 residues) assessed as enzyme activity at 1 uM using 33P ATP by radioactive filter binding assay. Further details: scale not given: the % may be the effect or the level left.
The target in test [14] is Ephrin type-B receptor 2 (Homo sapiens) (UniProt P29323). The experiment in a line: Inhibition of human EPHB2 (560 to 987 residues) assessed as enzyme activity at 1 uM using 33P ATP by radioactive filter binding assay. On the set-up: scale not given: the % may be the effect or the level left.
Test [15] addresses Mitogen-activated protein kinase kinase kinase 7 (Homo sapiens) (UniProt O43318). The experiment in a line: Inhibition of human TAB1 fused TAK1 (1 to 303 residues) assessed as enzyme activity at 1 uM using 33P ATP by radioactive filter binding assay. On the set-up: scale not given: the % may be the effect or the level left.
For test [16], the target named is Serine/threonine-protein kinase tousled-like 1 (Homo sapiens) (UniProt Q9UKI8). Briefly: Inhibition of human TLK1 (1 to 766 residues) assessed as enzyme activity at 1 uM using 33P ATP by radioactive filter binding assay. Further details: scale not given: the % may be the effect or the level left.
Sequence of Serine/threonine-protein kinase tousled-like 1 (Homo sapiens) (Q9UKI8 whole entry, the tested form may be a part): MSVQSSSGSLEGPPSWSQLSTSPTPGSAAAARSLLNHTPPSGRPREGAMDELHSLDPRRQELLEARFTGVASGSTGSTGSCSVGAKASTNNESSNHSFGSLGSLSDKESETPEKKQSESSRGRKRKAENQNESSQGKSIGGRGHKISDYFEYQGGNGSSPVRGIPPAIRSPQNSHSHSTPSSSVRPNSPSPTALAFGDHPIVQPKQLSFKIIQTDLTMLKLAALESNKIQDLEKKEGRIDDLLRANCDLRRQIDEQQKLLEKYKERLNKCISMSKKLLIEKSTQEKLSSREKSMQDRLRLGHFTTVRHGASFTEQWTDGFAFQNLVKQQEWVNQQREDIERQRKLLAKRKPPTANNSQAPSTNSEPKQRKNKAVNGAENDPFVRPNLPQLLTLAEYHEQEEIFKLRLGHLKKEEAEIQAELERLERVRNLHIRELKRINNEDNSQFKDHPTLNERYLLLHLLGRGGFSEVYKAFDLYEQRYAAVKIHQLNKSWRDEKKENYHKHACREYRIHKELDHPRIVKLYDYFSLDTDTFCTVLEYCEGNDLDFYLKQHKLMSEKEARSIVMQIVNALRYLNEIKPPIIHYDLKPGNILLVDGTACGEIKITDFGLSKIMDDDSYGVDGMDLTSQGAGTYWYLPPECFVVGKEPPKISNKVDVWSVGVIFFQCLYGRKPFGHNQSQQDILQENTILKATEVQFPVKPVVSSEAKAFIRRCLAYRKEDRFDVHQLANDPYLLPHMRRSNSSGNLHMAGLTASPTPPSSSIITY
Test [17] deals with Mitogen-activated protein kinase kinase kinase 9 (Homo sapiens) (UniProt P80192). Briefly: Inhibition of human MLK1 (132 to 413 residues) assessed as enzyme activity at 1 uM using 33P ATP by radioactive filter binding assay. On the set-up: scale not given: the % may be the effect or the level left.
Sequence of Mitogen-activated protein kinase kinase kinase 9 (Homo sapiens) (P80192 whole entry, looked up, the tested form may be a part): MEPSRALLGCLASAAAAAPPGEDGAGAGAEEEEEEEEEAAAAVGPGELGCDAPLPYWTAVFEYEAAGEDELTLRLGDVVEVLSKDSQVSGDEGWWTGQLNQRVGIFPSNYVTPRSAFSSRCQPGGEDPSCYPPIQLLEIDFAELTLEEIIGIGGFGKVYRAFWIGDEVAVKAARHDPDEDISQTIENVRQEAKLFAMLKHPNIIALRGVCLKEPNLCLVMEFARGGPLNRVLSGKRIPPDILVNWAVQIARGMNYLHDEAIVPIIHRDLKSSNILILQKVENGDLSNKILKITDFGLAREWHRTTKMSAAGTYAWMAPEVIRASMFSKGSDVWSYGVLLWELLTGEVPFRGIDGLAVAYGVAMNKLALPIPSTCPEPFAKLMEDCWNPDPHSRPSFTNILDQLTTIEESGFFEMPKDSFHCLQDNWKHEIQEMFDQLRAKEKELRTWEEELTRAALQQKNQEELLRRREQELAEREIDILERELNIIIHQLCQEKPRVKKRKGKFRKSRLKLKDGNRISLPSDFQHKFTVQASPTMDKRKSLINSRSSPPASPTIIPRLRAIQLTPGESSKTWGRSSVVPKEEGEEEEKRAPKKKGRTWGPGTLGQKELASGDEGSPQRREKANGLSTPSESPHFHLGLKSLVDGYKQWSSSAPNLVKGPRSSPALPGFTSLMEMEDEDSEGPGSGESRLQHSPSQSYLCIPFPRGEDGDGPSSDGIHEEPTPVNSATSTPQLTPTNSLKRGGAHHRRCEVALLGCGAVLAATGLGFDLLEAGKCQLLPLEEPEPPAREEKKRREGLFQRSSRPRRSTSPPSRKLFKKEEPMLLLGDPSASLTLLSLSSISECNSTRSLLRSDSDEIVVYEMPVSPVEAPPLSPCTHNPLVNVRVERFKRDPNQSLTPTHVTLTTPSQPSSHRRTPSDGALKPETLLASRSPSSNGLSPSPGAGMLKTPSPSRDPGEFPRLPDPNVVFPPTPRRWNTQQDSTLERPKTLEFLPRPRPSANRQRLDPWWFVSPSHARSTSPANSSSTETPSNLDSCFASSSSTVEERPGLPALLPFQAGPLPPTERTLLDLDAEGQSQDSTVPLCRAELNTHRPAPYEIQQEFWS
The target in test [18] is Mitogen-activated protein kinase 9 (Homo sapiens) (UniProt P45984). The experiment in a line: Inhibition of human JNK2 (1 to 424 residues) assessed as enzyme activity at 1 uM using 33P ATP by radioactive filter binding assay. On the set-up: scale not given: the % may be the effect or the level left.
Test [19] concerns the target Ephrin type-B receptor 4 (Homo sapiens) (UniProt P54760). The experiment in a line: Inhibition of human EPHB4 (561 to 987 residues) assessed as enzyme activity at 1 uM using 33P ATP by radioactive filter binding assay. On the set-up: scale not given: the % may be the effect or the level left.
The target of test [20] is Mitogen-activated protein kinase kinase kinase 11 (Homo sapiens) (UniProt Q16584). The experiment in a line: Inhibition of human MLK3 (96 to 386 residues) assessed as enzyme activity at 1 uM using 33P ATP by radioactive filter binding assay. On the set-up: scale not given: the % may be the effect or the level left.
Test [21] addresses Ribosomal protein S6 kinase alpha-1 (Homo sapiens) (UniProt Q15418). The experiment in a line: Inhibition of human RSK1 (1 to 735 residues) assessed as enzyme activity at 1 uM using 33P ATP by radioactive filter binding assay. Further details: scale not given: the % may be the effect or the level left.
The target in test [22] is Mitogen-activated protein kinase kinase kinase 1 (Homo sapiens) (UniProt Q13233). The experiment in a line: Inhibition of human MEKK1 (877 to 1563 residues) assessed as enzyme activity at 1 uM using 33P ATP by radioactive filter binding assay. On the set-up: scale not given: the % may be the effect or the level left.
Test [23] concerns the target Homeodomain-interacting protein kinase 1 (Homo sapiens) (UniProt Q86Z02). Briefly: Inhibition of human HIPK1 (158 to 555 residues) assessed as enzyme activity at 1 uM using 33P ATP by radioactive filter binding assay. On the set-up: scale not given: the % may be the effect or the level left.

Sequence of MAP/microtubule affinity-regulating kinase 4 (Homo sapiens) (Q96L34 whole entry, the tested form may be a part): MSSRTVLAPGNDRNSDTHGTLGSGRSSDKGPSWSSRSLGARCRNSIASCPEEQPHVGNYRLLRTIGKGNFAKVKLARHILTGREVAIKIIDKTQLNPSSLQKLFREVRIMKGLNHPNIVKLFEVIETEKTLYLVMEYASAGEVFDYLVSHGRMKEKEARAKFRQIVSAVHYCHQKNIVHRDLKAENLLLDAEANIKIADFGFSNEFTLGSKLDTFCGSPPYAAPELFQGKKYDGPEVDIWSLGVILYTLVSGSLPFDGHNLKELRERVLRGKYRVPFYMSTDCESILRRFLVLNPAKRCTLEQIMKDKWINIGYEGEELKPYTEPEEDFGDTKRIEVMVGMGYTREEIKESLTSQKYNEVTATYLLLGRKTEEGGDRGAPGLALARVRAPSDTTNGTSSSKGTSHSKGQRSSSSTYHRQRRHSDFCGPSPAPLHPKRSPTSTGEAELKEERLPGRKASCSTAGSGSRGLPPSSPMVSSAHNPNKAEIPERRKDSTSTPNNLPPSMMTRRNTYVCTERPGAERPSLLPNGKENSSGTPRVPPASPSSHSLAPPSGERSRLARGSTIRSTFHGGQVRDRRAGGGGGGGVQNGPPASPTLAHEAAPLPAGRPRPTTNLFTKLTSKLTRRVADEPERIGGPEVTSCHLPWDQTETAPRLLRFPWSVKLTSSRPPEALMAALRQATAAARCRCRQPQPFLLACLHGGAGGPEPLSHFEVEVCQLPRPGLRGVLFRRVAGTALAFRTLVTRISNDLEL
Sequence of Phosphatidylinositol 4,5-bisphosphate 3-kinase catalytic subunit delta isoform (Homo sapiens) (O00329 whole entry, the tested form may be a part, canonical isoform): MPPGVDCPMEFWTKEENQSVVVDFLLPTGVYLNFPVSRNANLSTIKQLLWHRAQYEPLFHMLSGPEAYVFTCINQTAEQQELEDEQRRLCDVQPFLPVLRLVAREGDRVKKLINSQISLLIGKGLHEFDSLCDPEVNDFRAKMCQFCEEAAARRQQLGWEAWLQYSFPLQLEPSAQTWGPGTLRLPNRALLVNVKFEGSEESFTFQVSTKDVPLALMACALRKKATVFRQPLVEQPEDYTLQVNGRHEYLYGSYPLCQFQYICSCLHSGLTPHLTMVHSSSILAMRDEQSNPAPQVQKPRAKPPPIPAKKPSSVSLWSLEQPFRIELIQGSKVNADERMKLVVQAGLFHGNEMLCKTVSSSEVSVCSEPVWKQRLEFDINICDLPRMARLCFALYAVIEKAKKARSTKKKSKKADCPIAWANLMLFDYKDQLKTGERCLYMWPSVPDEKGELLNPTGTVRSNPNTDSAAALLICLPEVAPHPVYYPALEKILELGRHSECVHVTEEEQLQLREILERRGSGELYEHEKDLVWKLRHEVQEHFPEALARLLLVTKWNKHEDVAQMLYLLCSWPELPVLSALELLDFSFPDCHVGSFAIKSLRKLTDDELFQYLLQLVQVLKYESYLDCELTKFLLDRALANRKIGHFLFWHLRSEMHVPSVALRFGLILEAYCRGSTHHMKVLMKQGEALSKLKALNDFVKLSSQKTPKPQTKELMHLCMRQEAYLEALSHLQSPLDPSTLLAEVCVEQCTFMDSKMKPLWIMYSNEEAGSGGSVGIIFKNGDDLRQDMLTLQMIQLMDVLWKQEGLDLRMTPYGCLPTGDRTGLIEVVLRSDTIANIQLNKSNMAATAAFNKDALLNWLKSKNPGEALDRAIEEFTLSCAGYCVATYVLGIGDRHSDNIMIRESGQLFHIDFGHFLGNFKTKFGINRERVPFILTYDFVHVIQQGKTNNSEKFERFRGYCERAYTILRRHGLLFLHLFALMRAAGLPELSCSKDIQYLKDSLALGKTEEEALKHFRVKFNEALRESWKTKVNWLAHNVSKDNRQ
Sequence of Serine/threonine-protein kinase BRSK1 (Homo sapiens) (Q8TDC3 whole entry, the tested form may be a part): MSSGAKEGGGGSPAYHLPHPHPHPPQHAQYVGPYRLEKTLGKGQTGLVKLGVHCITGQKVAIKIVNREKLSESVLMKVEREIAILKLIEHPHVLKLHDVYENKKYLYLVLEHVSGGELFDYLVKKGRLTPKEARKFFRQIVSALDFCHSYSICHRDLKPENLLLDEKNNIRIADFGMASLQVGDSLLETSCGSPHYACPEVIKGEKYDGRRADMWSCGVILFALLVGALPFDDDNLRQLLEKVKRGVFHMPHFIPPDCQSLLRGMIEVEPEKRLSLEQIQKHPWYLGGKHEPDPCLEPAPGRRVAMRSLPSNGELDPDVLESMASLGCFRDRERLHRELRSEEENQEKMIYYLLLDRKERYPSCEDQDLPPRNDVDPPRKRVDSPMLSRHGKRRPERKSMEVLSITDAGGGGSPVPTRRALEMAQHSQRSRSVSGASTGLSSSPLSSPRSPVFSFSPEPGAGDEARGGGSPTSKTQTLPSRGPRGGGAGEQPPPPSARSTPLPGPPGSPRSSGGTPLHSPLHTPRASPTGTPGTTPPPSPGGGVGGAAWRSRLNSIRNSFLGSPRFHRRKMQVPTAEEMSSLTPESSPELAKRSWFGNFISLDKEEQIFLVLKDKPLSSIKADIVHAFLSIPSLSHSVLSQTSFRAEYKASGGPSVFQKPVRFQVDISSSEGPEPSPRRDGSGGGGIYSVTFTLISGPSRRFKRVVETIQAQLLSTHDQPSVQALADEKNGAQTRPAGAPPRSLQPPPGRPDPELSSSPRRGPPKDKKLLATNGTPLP

In the case of `CCCCc1cc(-c2c[nH]c3ncc(-c4cnn(C5CCNCC5)c4)cc23)nc(N)n1`, the Ratio IC50 in test [1] came to 30. The Activity with MAPK3 (ERK1) is -32%.

In the case of `CCc1cc(-c2c[nH]c3ncc(-c4cnn(C5CCNCC5)c4)cc23)nc(N)n1`, the inhibition in [2] is 77%.

Regarding `Nc1nccc(-c2c[nH]c3ncccc23)n1` [MERIOLIN 1], the Activity in test [3] is 35%; in [4], -34%; in [5] it was 1%; in test [6], -25%; in test [7], -4%; in test [8], -98%. Moreover, the Activity was -3% in test [9]; -17% in test [10]; -15% in test [11]; -14% in [12]; -30% in test [13]; 15% in test [14]. Moreover, the Activity was -82% in test [15]; -14% in test [16]; -20% in test [17]; -1% in [18]; 4% in test [19]; -35% in test [20]. In addition, the results for the Activity in test [21], in [22] and in test [23] were -69%, -10% and -75%, respectively.

Broadly, the inhibition is the percentage by which the read-out fell short of the control.
